Measured values reported in patent US20160287696A1, “PAN POLLEN IMMUNOGENS AND METHODS AND USES FOR IMMUNE RESPONSE MODULATION” (LA JOLLA INSTITUTE FOR ALLERGY AND IMMUNOLOGY, priority 2013, published 2016).

System: cultured PBMCs of the allergic donors
Assay: ELISPOT of IL-5 or IFNg production by cultured PBMCs of TG allergic donors in response to peptide
Format: cell-based, human
Details: for # Th+: Table 7, peptides per NTGA recognized by T cells of grass allergic donors (n=20); for NTGA's containing at least one T cell epitope, Th+ (Col 2): NTGA number given = criterion met, TG allergic donors n=20; for No of PG+ & th+ peptides per NTGA / No of PP & Th+ peptides per NTGA: Table 6; for No of PG+ & th+ peptides per NTGA: PG+ peptides recognized by T cells of grass allergic donors (n=20); for No of PP & Th+ peptides per NTGA: PP peptides recognized by T cells of grass allergic donors (n=20)
Description: Table 1 indicates for each of the 397 PG+ peptides in which non-grass pollen species a matching peptide with either less than 3, less than 2 or zero mismatches are found. The number of TG grass allergic donors (n=20) with an in vitro T cell response to the TG peptide sequence is also shown.
A set of 93 proteins from Timothy grass (TG) pollen and the assembly of 822 peptides (15 mers) predicted to promiscuously bind HLA class II molecules shown in Table 9 and the immune reactivity in allergic donors have been reported in PCT application WO 2013/119863. […] Immune reactivity was determined by the production of IL-5 or IFNg from cultured PBMCs of the allergic donors in response to stimulation with a peptide and IL-5 and IFNg were measured by ELISPOT as described in Oseroff C et al, 2010.
In short, T cell immune reactivity was determined using PBMCs isolated from study participants and stored in liquid nitrogen until further use. For experimental testing, PBMCs were thawed and expanded in vitro with TG pollen extract (50 μg/mL) or the peptide pool ([…]). The TG extract and peptide pools had each been previously titrated to determine optimal stimulation concentrations.
Cytokine production by cultured PBMCs in response to antigen stimulation was measured by ELISPOT. Cells (1×10^5 cells/well) were plated and incubated with peptide (10 μg/mL), the peptide pool (5 μg/mL), or the TG extract (50 μg/mL). Phytohaemagglutinin (10 μg/mL) and medium alone were used as positive and negative controls, respectively. Samples were considered to produce a cytokine if 100 spot-forming cells (SFCs)/10^6 PBMCs were detected, with P .05 and a stimulation index of 2 or more. Criteria for individual peptides were the same except that a minimum of 20 SFCs were required for a sample to be counted as positive.
Table 3 lists the 397 PG+ peptides and indicates for each non-grass pollen species whether a matching peptide with either less than 3, less than 2 or zero mismatches could be detected. The immune reactivity of the TG peptide was assessed as the number of TG grass allergic donors (n=20) having in vitro T cell response against the TG peptide.

| Substance | # Th+ | NTGA's containing at least one T cell epitope, Th+ (Col 2) | No of PG+ & th+ peptides per NTGA | No of PP & Th+ peptides per NTGA |
| --- | --- | --- | --- | --- |
| 14 (LGAAAVYAGLKFRAP) [compound 14] | 0 | – | – | – |
| 15 (GASTGVYEALELRDG) [compound 15] | 0 | – | – | – |
| 16 (QTELDNFMVHQLDGT) [compound 16] | 0 | 16 | 2 | 2 |
| 17 (VDNVNSIIGPALIGK) [compound 17] | 0 | – | – | – |
| 18 (ENRSVLHVALRAPRD) [compound 18] | 0 | – | 0 | 0 |
| 21 (VVSKTFTTAETMLNA) [compound 21] | 0 | – | 0 | 0 |
| 23 (RYSVCSAVGVLPLSL) [compound 23] | 0 | – | – | – |
| 25 (VLLGLLSVWNVSFLG) [compound 25] | 0 | – | – | – |
| 28 (NGQHSFYQLIHQGRV) [compound 28] | 0 | – | 0 | 0 |
| 31 (QGFIWGINSFDQWGV) [compound 31] | 0 | – | 0 | 0 |
| 33 (DDGKVYLEMSYYFEI) [compound 33] | 0 | – | 0 | 0 |
| 35 (RNMVLGKRFFVTPSD) [compound 35] | 0 | 35 | 2 | 1 |
| 36 (KRFFVTPSDSVAIIA) [compound 36] | 0 | – | 0 | 0 |
| 37 (SDSVAIIAANAVQSI) [compound 37] | 0 | – | – | – |
| 38 (AVQSIPYFASGLKGV) [compound 38] | 0 | – | 0 | 0 |
| 40 (GIWAVLAWLSIIAYK) [compound 40] | 0 | 40 | 2 | 2 |
| 41 (LVSVEDIVLQHWATY) [compound 41] | 0 | – | – | – |
| 42 (HQGIRYLFGDGSRLV) [compound 42] | 0 | 42 | 1 | 1 |
| 44 (GATIRIYIEQYEKDS) [compound 44] | 0 | – | 0 | 0 |
| 45 (DALSPLVDVALKLSK) [compound 45] | 0 | – | – | – |
| 46 (LDIAVRLLEPIKEQV) [compound 46] | 1 | – | – | – |
| 48 (ILSYADFYQLAGVVA) [compound 48] | 0 | – | 0 | 0 |
| 50 (NPLIFDNSYFTELLT) [compound 50] | 0 | – | 0 | 0 |
| 54 (FLDLIVLQIESLNKK) [compound 54] | – | 54 | – | – |
| 55 (LNKKYGSNVPLLLMN) [compound 55] | 0 | – | 0 | 0 |

| Substance | # Th+ | NTGA's containing at least one T cell epitope, Th+ (Col 2) | No of PG+ & th+ peptides per NTGA | No of PP & Th+ peptides per NTGA |
| --- | --- | --- | --- | --- |
| 57 (LKIVEKYANSSIDIH) [compound 57] | 0 | – | 0 | 0 |
| 58 (GKLDLLLSQGKEYVF) [compound 58] | 0 | – | 0 | 0 |
| 60 (SDNLGAIVDMKILNH) [compound 60] | 0 | – | 0 | 0 |
| 61 (ISYEGRVQLLEIAQV) [compound 61] | 0 | – | – | – |
| 63 (FKSIEKFKIFNTNNL) [compound 63] | 0 | – | – | – |
| 66 (IKRLVEADALKMEII) [compound 66] | 0 | – | – | – |
| 67 (VKVLQLETAAGAAIR) [compound 67] | 0 | – | – | – |
| 68 (AAIRFFDHAIGINVP) [compound 68] | 0 | – | – | – |
| 69 (GINVPRSRFLPVKAT) [compound 69] | 0 | – | 0 | 0 |
| 70 (RFLPVKATSDLQLVQ) [compound 70] | 0 | – | – | – |
| 71 (TSDLQLVQSDLYTLV) [compound 71] | 0 | – | – | – |
| 72 (VQSDLYTLVDGFVTR) [compound 72] | 0 | 72 | 2 | 1 |
| 74 (GRFKSIPSIVELDSL) [compound 74] | 0 | – | – | – |
| 75 (GTIRNIINGTVFREP) [compound 75] | 0 | – | – | – |
| 78 (GRFKDIFQAVYEADW) [compound 78] | 0 | – | – | – |
| 79 (WYEHRLIDDMVAYAL) [compound 79] | 0 | 79 | 1 | 0 |
| 80 (VQSDFLAQGFGSLGL) [compound 80] | 0 | – | – | – |
| 81 (NSIASIFAWTRGLAH) [compound 81] | 0 | – | – | – |
| 82 (DNARLLDFTQKLEDA) [compound 82] | 0 | – | – | – |
| 83 (LNTEEFIDAVAAELQ) [compound 83] | 0 | 83 | 11 | 4 |
| 84 (KSLVRAFMWDSGSTV) [compound 84] | 0 | 84 | 4 | 3 |
| 85 (RVLSCDFKPTRPFRI) [compound 85] | 0 | – | – | – |
| 88 (IKLKNMLFHTARINC) [compound 88] | 0 | – | – | – |
| 92 (SVGFVETLENDLAQL) [compound 92] | 0 | – | – | – |
| 93 (LGEAPYKFKSALEAV) [compound 93] | 0 | – | – | – |
